Reference: patent publication US7368429B2, “Peptide specificity of anti-myelin basic protein and the administration of myelin basic protein peptides to multiple sclerosis patients” (The Governors of the University of Alberta, priority 1991, dated 2008)
Entries after “also recorded” stand apart in the source; their conditions may differ. Where a SMILES comes first, the peptide text is derived from it. Where no end group is shown, it is not given here.

How the values were obtained:
[1] = test system: anti-MBP purified from CSF of MS patients; assay: In vitro neutralization of purified anti-MBP (liquid phase assay, then solid phase radioimmunoassay); assay type: binding, human; details: for REACTIVITY WITH ANTI-MBP: purified anti-MBP, h-MBP 0-1000 ng, peptides 0-10,000 ng, 1.5 hours incubation; for neutralization of purified anti-MBP: pooled anti-MBP from 10 MS patients, FIG. 2; for neutralization of anti-MBP purified from individual patients: anti-MBP from 7 individual MS patients, FIG. 3; for times less effective on a molar basis than intact MBP at causing inhibition: peptides giving complete inhibition
Text: Purified MBP was coupled to CNBr-activated Sepharose 4B (Pharmacia™) according to the manufacturer's instructions. Purified CSF IgG containing increased anti-MBP levels from 35 patients with acute MS relapses was used to isolate anti-MBP by MBP-Sepharose affinity chromatography (Warren, K. G. and Catz, I., J Neurol Sci 103:90-96, 1991). Purified anti-MBP samples were compared with the initial IgG source by poly-acrylamide gel electrophoresis. When purified anti-MBP samples were absorbed to zero with MBP, the post-absorption supernatants contained no residual IgG indicating the purity of anti-MBP.
Constant amounts of anti-MBP (15 radioactivity binding units corresponding to 100 for scale expansion purposes=% 0) were incubated with increasing amounts of h-MBP (0-1000 ng) or individual peptides of MBP (0-10,000 ng) in a liquid phase assay and after 1.5 hours incubation, free anti-MBP levels were determined in all mixtures. Anti-MBP isolated from 7 individual MS patients or pooled anti-MBP from 10 different MS patients were used in neutralization experiments. […] Another mouse monoclonal antibody to epitope 45-50 was used as negative antibody control.
Anti-MBP levels were determined by a solid phase radioimmunoassay with human MBP (Warren, K. G. and Catz, I., Ann Neurol 209:20-25, 1986; Warren, K. G. and Catz, I., Ann Neurol 21:183-187, 1987; and Warren, K. G. and Catz, I., J Neurol Sci 91:143-151, 1989). Free anti-MBP levels were measured in all fractions from affinity chromatography and in all neutralization mixtures. All individual samples were run in quadruplicate using the same iodinated material in order to minimize between-assay variability.

[2] = Safety monitoring of MS patients after peptide administration; assay type: in vivo, human
CSF anti-MBP = assay: Intrathecal peptide administration to MS patients, CSF anti-MBP by radioimmunoassay; assay type: in vivo, human
Method: Anti-MBP levels were determined by a solid phase radioimmunoassay with human MBP coated on Immulon microtiter wells. Immulon microtiter wells were coated with 100 μl of 10 μg/ml of MBP (1 μg/well) and incubated overnight at 37° C. After quenching with bovine serum albumin (BSA) and three water washes, the wells were stored at room temperature. Samples of 100 μl of CSF or tissue extracts diluted to 0.010 gm of IgG/l (with 0.01 M Barbitol Buffered Saline (BBS) pH 6.9-7.1, 0.5% BSA and 0.05% Tween 20) were incubated in MBP-coated wells for 1-2 hours at room temperature. After 5 buffer washes (with 0.01 M BBS, 0.5 BSA and 0.05% Tween 20), wells were incubated with goat […] IgG-Fc specific (in 0.01 M BBS, 0.05% Tween 20, 0.5% BSA) for 1 hour at room temperature and then rinsed as above. Finally, ^125I-protein A (or ^125I-protein G) was added and incubated for 1 hour at room temperature. When ^125I-protein G was used as a tracer, ovalbumin replaced BSA in assay buffer and for quenching. After three final water washes wells were individually counted. Results are expressed in radioactivity defined as: (counts of sample−counts of blank)÷(counts of total radioactivity−counts of blank). All samples are run in 10 replicate and counting time is 10 minutes in order to collect>10,000 counts for any positive sample.
Prior to being assayed all CSF and/or tissue samples were diluted to a final IgG concentration of 0.010 g/l. F anti-MBP was detected directly in CSF or tissue extract while B levels of antibody were determined following acid hydrolysis of immune complexes with glycine HCl buffer pH 2.2. […] For epitope localization, synthetic peptides were firstly reacted with purified antibody in a liquid phase competitive assay and then anti-MBP was determined by radioimmunoassay in all resulting supernatants. Results of the combined competitive binding assay and radioimmunoassay were expressed as percent inhibition of synthetic peptide defined as 100—radioactivity units. Samples were done in 10 replicates and counted for 10 minutes each in a LKB1275 Minigamma counter. […]
A Phase 1 experiment to determine the effect of synthetic peptide MBP75-95 on F and B titers of CSF anti-MBP was conducted. […] After obtaining informed consent, 14 patients volunteered for this study; eight patients were selected on the basis of their initial titre of F CSF anti-MBP (above 8 radioactivity units) (Table 2) to receive one intrathecal injection of either peptide MBP75-95 which bound anti-MBP in vitro or a non-binding control peptide MBP35-58 (Warren and Catz, 1993b). […] Cell counts, total protein, glucose, IgG and albumin levels were determined in all CSF samples obtained. F and B anti-MBP levels were determined by radioimmunoassay, as described above. […]

[3] = target: purified B (bound) anti-MBP from MS brain tissue; assay: liquid-phase competitive inhibition + solid-phase RIA on human MBP (FIG. 10)
[4] = target: purified F (free) anti-MBP from MS brain tissue; assay: as above
[5] = target: purified anti-MBP (antibodies to human myelin basic protein purified from CSF of multiple sclerosis patients; pooled from 10 different patients); assay: liquid-phase neutralization + solid-phase RIA on human MBP; reference intact MBP
[6] = target: purified B (bound) anti-MBP from MS brain tissue; assay: competitive inhibition assays using a series of 41 decapeptides
[7] = target: free (F) anti-MBP in the CSF of MS patients; assay: cell-based or functional assay

In the case of “26-40: synthetic peptide of human MBP sequence 26-40 (HGFLPRHRDTGILDS)”, the “REACTIVITY WITH ANTI-MBP” value [1] is reported as “−”.

For “117-129: synthetic peptide of human MBP sequence 117-129 (GAEGQRPGFGYGG)”, the “REACTIVITY WITH ANTI-MBP” value [1] was “−”.

In the case of “141-155: synthetic peptide of human MBP sequence 141-155 (FKGVDAQGTLSKIFK)”, the “REACTIVITY WITH ANTI-MBP” value [1] is reported as “−”.

For `CC[C@H](C)[C@H](NC(=O)[C@H](CC(N)=O)NC(=O)[C@H](CCCCN)NC(=O)[C@H](Cc1ccccc1)NC(=O)[C@H](Cc1ccccc1)NC(=O)[C@H](Cc1c[nH]cn1)NC(=O)[C@@H](NC(=O)[C@@H](NC(=O)[C@@H]1CCCN1C(=O)[C@H](CC(N)=O)NC(=O)[C@H](CCC(=O)O)NC(=O)[C@H](CC(=O)O)NC(=O)[C@H](CCC(N)=O)NC(=O)[C@@H](NC(=O)[C@H](CCCNC(=N)N)NC(=O)CNC(=O)[C@H](Cc1c[nH]cn1)NC(=O)[C@H](CO)NC(=O)[C@@H](N)CCCCN)[C@@H](C)O)C(C)C)C(C)C)C(=O)N[C@H](C(=O)N[C@H](C(=O)O)[C@@H](C)O)C(C)C` [MBP75-95] (H-KSHGRTQDENPVVHFFKNIVT-OH; N-terminus and C-terminus assumed), the adverse effects ([2]; 500 mg intravenously over 30 minutes, patient 8M41) was “No adverse effects were observed” and the “systemic complications (electrolytes, cardiac-liver-kidney dysfunction, hematology)” value ([2]; repeated intrathecal inoculations) was “no adverse complications have occurred”.

In the case of `CC[C@H](C)[C@H](NC(=O)[C@H](CC(N)=O)NC(=O)[C@H](CCCCN)NC(=O)[C@H](Cc1ccccc1)NC(=O)[C@H](Cc1ccccc1)NC(=O)[C@H](Cc1c[nH]cn1)NC(=O)[C@@H](NC(=O)[C@@H](N)C(C)C)C(C)C)C(=O)N[C@H](C(=O)N[C@H](C(=O)O)[C@@H](C)O)C(C)C` [MBP86-95] (H-VVHFFKNIVT-OH; N-terminus and C-terminus assumed), the “solubility in normal saline” value (Solubility of peptides) is reported as “very low solubility”.

With “Cy 4-18: synthetic peptide of human MBP sequence 4-18 with unnatural cysteine residue (CKRPSQRHGSKYLATA)” the “REACTIVITY WITH ANTI-MBP” value [1] was “−”.

In the case of “Cy 11-24: synthetic peptide of human MBP sequence 11-24 with unnatural cysteine residue (CGSKYLATASTMDHA)”, the “REACTIVITY WITH ANTI-MBP” value [1] is reported as “−”.

In the case of “Cy 51-64 Gly: synthetic peptide of human MBP sequence 51-64 with added Cy and Gly (CAPKRGSGKDSHHPAG)”, the “REACTIVITY WITH ANTI-MBP” value [1] is reported as “+”.

For “Cy 127-140: synthetic peptide of human MBP sequence 127-140 with unnatural cysteine residue (CYGGRASDYKSAHKG)”, the “REACTIVITY WITH ANTI-MBP” value [1] was “−”.

In the case of “Cy 136-149: synthetic peptide of human MBP sequence 136-149 with unnatural cysteine residue (CSAHKGFKGVDAQGT)”, the “REACTIVITY WITH ANTI-MBP” value [1] is reported as “−”.

In the case of HHPARTAHYGSLPQK [MBP61-75], the “neutralization of purified anti-MBP” value [1] is reported as “partially neutralized” and the “REACTIVITY WITH ANTI-MBP” value [1] is reported as “+”.

In the case of KNIVTPRTPPPSQGKG [MBP91-106], the “neutralization of anti-MBP purified from individual patients” value [1] is reported as “completely neutralized”, the “times less effective on a molar basis than intact MBP at causing inhibition” value [1] is reported as “approximately 100 times” and the “neutralization of purified anti-MBP” value [1] is reported as “completely neutralized”. For the same molecule, the “REACTIVITY WITH ANTI-MBP” value [1] was “−”.

In the case of “MBP35-58: non-binding, control synthetic peptide of human MBP, residues 35-58 (TGILDSIGRFFGGDRGAPKRGSGK)”, the “REACTIVITY WITH ANTI-MBP” value [1] is reported as “−”, the “CSF F anti-MBP” value (CSF anti-MBP; single intrathecal injection 5 mg) is reported as “remained elevated at baseline level” and the “CSF F anti-MBP” value (CSF anti-MBP; single intrathecal injection 10 mg, chronic progressive MS) is reported as “persistently elevated”. The “F and B levels of CSF anti-MBP” value (CSF anti-MBP; single intrathecal injection 1, 2.5, 5 or 10 mg, 24 hour experiment, chronic progressive MS) was “remained unchanged; also recorded: remained unaffected” and the “CSF F (free) anti-MBP” value (CSF anti-MBP; single intrathecal injection, increasing amounts 1-10 mg, chronic progressive MS) was “did not react”.

In the case of “Thr Gln Asp Glu Asn Pro Val Val His Phe Phe Lys Asn Ile Val Thr Pro Arg (CTQDENPVVHFFKNIVTPRG) [MBP80-97]”, the “neutralization of anti-MBP purified from individual patients” value [1] is reported as “completely neutralized”, the “times less effective on a molar basis than intact MBP at causing inhibition” value [1] is reported as “approximately 100 times” and the “neutralization of purified anti-MBP” value [1] is reported as “completely neutralized”. The “REACTIVITY WITH ANTI-MBP” value [1] was “++”.

With YGSLPQKSHGRTQDE [MBP69-83] the “neutralization of purified anti-MBP” value [1] was “partially neutralized” and the “REACTIVITY WITH ANTI-MBP” value [1] was “++”.

PVVHFFKNIV [decapeptide MBP85-94] gave a percent inhibition [3] greater than 80% and a percent inhibition [4] greater than 80%.

For CKNIVTPRTPPPSQGKG [peptide MBP91-106 (Cy 91-106)], the times less effective on a molar basis than intact MBP at causing inhibition [5] was 100 times.

For CKSHGRTQDENPVVHFFKNIVT [peptide MBP75-95 (Cy 75-95, Example 1)], the times less effective on a molar basis than intact MBP at causing inhibition [5] was 100 times.

Molecule VHFFKNIVTP [decapeptide MBP87-96] has a percent inhibition [3] greater than 80% and a percent inhibition [4] greater than 80%.

Molecule VVHFFKNIVT [decapeptide MBP86-95] has a percent inhibition [6] greater than 95%, a percent inhibition [3] greater than 80% and a percent inhibition [4] greater than 80%.

In the case of NPVVHFFKNI [decapeptide MBP84-93], the percent inhibition [3] is reported as greater than 80% and the percent inhibition [4] is reported as greater than 80%.

KSHGRTQDENPVVHFFKNIVT [synthetic peptide MBP75-95 (Example 2 and later)] showed a decrease in F anti-MBP level in CSF after one intrathecal injection of 1 mg MBP75-95 (patient 6F53) [7] of 75%, a percent inhibition [3] of 100% and a percent inhibition [4] of 100%.

Molecule CTQDENPVVHFFKNIVTPRG [peptide MBP80-97 (Cy 80-97 Gly)] has a times less effective on a molar basis than intact MBP at causing inhibition [5] of 100 times.
